Laboratory results as given in patent US8697715B2, “Serine/threonine kinase inhibitors” (Array BioPharma Inc., priority 2012, dated 2014).

Test system: PMA-stimulated P90RSK(Ser380) phosphorylation in HepG2 cells
Test: Cellular P90RSK(Ser380) Phosphorylation Assay
Format: cell-based
Conditions: Homo sapiens, read-out: Biological Example 2 IC50 (nM), 1.5 hours compound incubation, PMA 100 ng/mL 30 minutes, normalized to GAPDH, single assay or mean of multiple assays
Procedure: Inhibition of PMA-stimulated P90RSK(Ser380) phosphorylation was determined by the following in vitro cellular mechanistic assay, which comprises incubating cells with a compound for 1.5 hours and quantifying fluorescent pP90RSK(Ser380) signal on fixed cells and normalizing to GAPDH signal.
HepG2 cells were obtained from ATCC and grown in DMEM supplemented with 10% fetal bovine serum. Cells were plated in 96-well plates at 35,000 cells/well and allowed to attach overnight at 37° C./5% CO2. Diluted compounds were then added at a final concentration of 0.5% DMSO. After 1.5 hours compound incubation, cells were stimulated with the addition of phorbol 12-myristate 13-acetate (“PMA”) at a final concentration of 100 ng/mL; the PMA stimulation was a 30-minute incubation at 37° C./5% CO2. After the 30-minute PMA stimulation, cells were washed with phosphate buffered saline (“PBS”) and fixed in 3.7% formaldehyde in PBS at room temperature for 15-20 minutes. This was followed by another wash in PBS and then permeabilization in 100% MeOH at room temperature for 10-15 minutes. Following the permeabilization incubation, cells were washed in PBS/0.05% Tween-20, followed by a block in Odyssey blocking buffer (LI-COR Biosciences) for at least 1 hour. […] Both secondary antibodies were used at a 1:1000 dilution. Cells were then washed and analyzed for fluorescence at both wavelengths using the Odyssey Infrared Imaging System (LI-COR Biosciences). Phosphorylated P90RSK(Ser380) signal was normalized to GAPDH signal.

Structure (SMILES) | IC50 [nM]
O=c1cc(-c2ccnc(NC3CCOCC3)n2)ccn1[C@H](CO)c1ccc(Cl)c(F)c1 [Example 1, (S)-1-(1-(4-chloro-3-fluorophenyl)-2-hydroxyethyl)-4-(2-((tetrahydro-2H-pyran-4-yl)amino)pyrimidin-4-yl)pyridin-2(1H)-one] | 31.9
O=c1cc(-c2ccnc(N[C@H]3CCOC[C@H]3F)n2)ccn1[C@H](CO)c1ccc(Cl)c(F)c1 [Example 2, 1-((S)-1-(4-chloro-3-fluorophenyl)-2-hydroxyethyl)-4-(2(((3S,4S)-3-fluorotetrahydro-2H-pyran-4-yl)amino)pyrimidin-4-yl)pyridin-2(1H)-one] | 59.1
O=c1cc(-c2ccnc(N[C@@H]3CCOC[C@H]3F)n2)ccn1[C@H](CO)c1ccc(Cl)c(F)c1 [Example 3, 1-((S)-1-(4-chloro-3-fluorophenyl)-2-hydroxyethyl)-4-(2-(((3S,4R)-3-fluorotetrahydro-2H-pyran-4-yl)amino)pyrimidin-4-yl)pyridin-2(1H)-one] | 40.3
O=c1cc(-c2ccnc(N[C@H]3CCOC[C@H]3F)n2)ccn1[C@H](CO)c1ccc(Cl)c(Cl)c1 [Example 4, 1-((S)-1-(3,4-dichlorophenyl)-2-hydroxyethyl)-4-(2-(((3S,4S)-3-fluorotetrahydro-2H-pyran-4-yl)amino)pyrimidin-4-yl)pyridin-2(1H)-one] | 8.5
Cn1nccc1Nc1nccc(-c2ccn([C@H](CO)c3ccc(Cl)c(F)c3)c(=O)c2)n1 [Example 39, (S)-1-(1-(4-chloro-3-fluorophenyl)-2-hydroxyethyl)-4-(2-((1-methyl-1H-pyrazol-5-yl)amino)pyrimidin-4-yl)pyridin-2(1H)-one] | 15.5
O=c1cc(-c2ccnc(N[C@@H]3C[C@@H]4C[C@H]3CO4)n2)ccn1[C@H](CO)c1ccc(Cl)c(F)c1 [Example 42, 4-(2-((1S,4R,5R)-2-oxabicyclo[2.2.1]heptan-5-ylamino)pyrimidin-4-yl)-1-((S)-1-(4-chloro-3-fluorophenyl)-2-hydroxyethyl)pyridin-2(1H)-one] | 74
COc1ccc([C@@H]([C@H]2CCCN2)n2ccc(-c3ccnc(NC4CCOCC4)n3)cc2=O)cc1F [Example 50, 1-((S)-(3-fluoro-4-methoxyphenyl)((R)-pyrrolidin-2-yl)methyl)-4-(2-((tetrahydro-2H-pyran-4-yl)amino)pyrimidin-4-yl)pyridin-2(1H)-one] | 292
O=c1cc(-c2ccnc(NC3CCOCC3)n2)ccn1[C@H](CO)c1cccc(Cl)c1 [Example 57, (S)-1-(1-(3-chlorophenyl)-2-hydroxyethyl)-4-(2-((tetrahydro-2H-pyran-4-yl)amino)pyrimidin-4-yl)pyridin-2(1H)-one] | 1770
C[C@@H](CO)Nc1nccc(-c2ccn(C(CO)c3cccc(Cl)c3)c(=O)c2)n1 (stereo partly drawn) [Example 58, 1-(1-(3-chlorophenyl)-2-hydroxyethyl)-4-(2-(((S)-1-hydroxypropan-2-yl)amino)pyrimidin-4-yl)pyridin-2(1H)-one] | 708
C[C@@H](CO)Nc1nccc(-c2ccn(C(CO)c3ccc(F)c(Cl)c3)c(=O)c2)n1 (stereo partly drawn) [Example 60, 1-(1-(3-chloro-4-fluorophenyl)-2-hydroxyethyl)-4-(2-(((S)-1-hydroxypropan-2-yl)amino)pyrimidin-4-yl)pyridin-2(1H)-one] | 1610
O=c1cc(-c2ccnc(NC3CCOCC3)n2)ccn1C(c1ccc(Cl)c(F)c1)[C@@H]1CCCN1 (stereo partly drawn) [Example 102, 1-((4-chloro-3-fluorophenyl)((S)-pyrrolidin-2-yl)methyl)-4-(2-((tetrahydro-2H-pyran-4-yl)amino)pyrimidin-4-yl)pyridin-2(1H)-one] | > 5000
CC[C@@H](CO)Nc1nccc(-c2ccn(C(C)c3ccc(Cl)c(F)c3)c(=O)c2)n1 (stereo partly drawn) [Example 134, 1-(1-(4-chloro-3-fluorophenyl)ethyl)-4-(2-(((S)-1-hydroxybutan-2-yl)amino)pyrimidin-4-yl)pyridin-2(1H)-one] | 544
CCc1nccc(Nc2nccc(-c3ccn(C(CO)c4ccc(Cl)c(F)c4)c(=O)c3)n2)n1 (stereo not shown) [Example 139, 1-(1-(4-chloro-3-fluorophenyl)-2-hydroxyethyl)-4-(2-((2-ethylpyrimidin-4-yl)amino)pyrimidin-4-yl)pyridin-2(1H)-one] | 372
O=c1cc(-c2ccnc(NC3CCOCC3)n2)ccn1CCc1ccc(OC(F)(F)F)cc1 [Example 157, 4-(2-((tetrahydro-2H-pyran-4-yl)amino)pyrimidin-4-yl)-1-(4-(trifluoromethoxy)phenethyl)pyridin-2(1H)-one] | 46.3
Cc1nn(C)cc1Nc1nccc(-c2ccn(C(CO)c3ccc(Cl)c(F)c3)c(=O)c2)n1 (stereo not shown) [Example 166, 1-(1-(4-chloro-3-fluorophenyl)-2-hydroxyethyl)-4-(2-((1,3-dimethyl-1H-pyrazol-4-yl)amino)pyrimidin-4-yl)pyridin-2(1H)-one] | 12.9
Cc1cc(Nc2nccc(-c3ccn([C@H](CO)c4ccc(Cl)c(F)c4)c(=O)c3)n2)n(C)n1 [Example 167, (S)-1-(1-(4-chloro-3-fluorophenyl)-2-hydroxyethyl)-4-(2-((1,3-dimethyl-1H-pyrazol-5-yl)amino)pyrimidin-4-yl)pyridin-2(1H)-one] | 100
C=C(c1ccc(Cl)c(F)c1)n1ccc(-c2ccnc(Nc3ccnc(C)c3)n2)cc1=O [Example 172, 1-(1-(4-chloro-3-fluorophenyl)vinyl)-4-(2-((2-methylpyridin-4-yl)amino)pyrimidin-4-yl)pyridin-2(1H)-one] | 12.9
CCn1cc(Nc2nccc(-c3ccn([C@H](CO)c4ccc(Cl)c(F)c4)c(=O)c3)n2)c(C)n1 [Example 173, (S)-1-(1-(4-chloro-3-fluorophenyl)-2-hydroxyethyl)-4-(2-((1-ethyl-3-methyl-1H-pyrazol-4-yl)amino)pyrimidin-4-yl)pyridin-2(1H)-one] | 110
Cc1nc[nH]c1Nc1nccc(-c2ccn([C@H](CO)c3ccc(Cl)c(F)c3)c(=O)c2)n1 [Example 185, (S)-1-(1-(4-chloro-3-fluorophenyl)-2-hydroxyethyl)-4-(2-((4-methyl-1H-imidazol-5-yl)amino)pyrimidin-4-yl)pyridin-2(1H)-one] | 19.6
Cn1cc(C(c2ccc(Cl)c(Cl)c2)n2ccc(-c3nc(NC4CCOCC4)ncc3F)cc2=O)cn1 (stereo not shown) [Example 209, 1-((3,4-dichlorophenyl)(1-methyl-1H-pyrazol-4-yl)methyl)-4-(5-fluoro-2-((tetrahydro-2H-pyran-4-yl)amino)pyrimidin-4-yl)pyridin-2(1H)-one] | 6.7
O=c1cc(-c2ccnc(NC3CCOCC3)n2)ccn1Cc1cc2ccc(Cl)cc2[nH]1 [Example 250, 1-((6-chloro-1H-indol-2-yl)methyl)-4-(2-((tetrahydro-2H-pyran-4-yl)amino)pyrimidin-4-yl)pyridin-2(1H)-one] | 15.2
O=c1cc(-c2ccnc(NC3CCOCC3)n2)ccn1Cc1cc2c(F)cccc2[nH]1 [Example 266, 1-((4-fluoro-1H-indol-2-yl)methyl)-4-(2-((tetrahydro-2H-pyran-4-yl)amino)pyrimidin-4-yl)pyridin-2(1H)-one] | 8.6
O=c1cc(-c2ccnc(NC3CCOCC3)n2)ccn1Cc1cc(F)c2cc[nH]c2c1 [Example 289, 1-((4-fluoro-1H-indol-6-yl)methyl)-4-(2-((tetrahydro-2H-pyran-4-yl)amino)pyrimidin-4-yl)pyridin-2(1H)-one] | 20.4
CC(C)(N)C(=O)OC[C@H](c1ccc(Cl)c(F)c1)n1ccc(-c2ccnc(NC3CCOCC3)n2)cc1=O [Example 290, (S)-2-(4-chloro-3-fluorophenyl)-2-(2-oxo-4-(2-((tetrahydro-2H-pyran-4-yl)amino)pyrimidin-4-yl)pyridin-1(2H)-yl)ethyl 2-amino-2-methylpropanoate] | 26.5
O=c1cc(-c2ccnc(NC3CCOCC3)n2)ccn1[C@H](CO)c1cc2cc(F)ccc2[nH]1 [Example 291, (S)-1-(1-(5-fluoro-1H-indol-2-yl)-2-hydroxyethyl)-4-(2-((tetrahydro-2H-pyran-4-yl)amino)pyrimidin-4-yl)pyridin-2(1H)-one] | 55.9
CC(=O)OC[C@H](c1ccc(Cl)c(F)c1)n1ccc(-c2ccnc(Nc3ccnn3C)n2)cc1=O [Example 293, (S)-2-(4-chloro-3-fluorophenyl)-2-(4-(2-((1-methyl-1H-pyrazol-5-yl)amino)pyrimidin-4-yl)-2-oxopyridin-1(2H)-yl)ethyl acetate] | 16.8
C=C(c1ccc(Cl)c(F)c1)n1ccc(-c2ccnc(Nc3ccnn3CC)n2)cc1=O [Example 295, 1-(1-(4-chloro-3-fluorophenyl)vinyl)-4-(2-((1-ethyl-1H-pyrazol-5-yl)amino)pyrimidin-4-yl)pyridin-2(1H)-one] | 204
NC[C@H](c1ccc(Cl)c(F)c1)n1ccc(-c2ccnc(NC3CCOCC3)n2)cc1=O [Example 305, (S)-1-(2-amino-1-(4-chloro-3-fluorophenyl)ethyl)-4-(2-((tetrahydro-2H-pyran-4-yl)amino)pyrimidin-4-yl)pyridin-2(1H)-one] | 53
